# Where “and” joins values, the source holds several entries; their conditions need not be identical. Identical values can stand only once. Like-named read-outs stand apart in the source and are kept apart here.
# Assay: Plasma pharmacokinetics after intraperitoneal injection in mouse (UPLC-MS/MS)
# Type: in vivo
# Settings: for concentration at 5 min / concentration at 0.167 h / concentration at 0.25 h / concentration at 0.5 h / concentration at 1 h / concentration at 2 h / concentration at 4 h / concentration at 8 h / half-life / MRT / AUC(0-inf) / Cmax / Tmax / AUC(0-t) / MRT inf / concentration at 6 h: male, ICR; for concentration at 5 min / concentration at 0.167 h / concentration at 0.25 h / concentration at 0.5 h / concentration at 1 h / concentration at 2 h / concentration at 4 h / concentration at 8 h / half-life / MRT / concentration at 6 h: plasma; for concentration at 5 min / concentration at 0.167 h / concentration at 0.25 h / concentration at 0.5 h / concentration at 1 h / concentration at 2 h / concentration at 4 h / concentration at 8 h / concentration at 6 h: ip; for MRT: read-out: mean residence time (MRT)(0-t); for AUC(0-inf) / Cmax / Tmax / AUC(0-t) / MRT inf / AUClast/D / AUC—% Extrap—obs / T1/2: mouse plasma, prototype drug; for AUC(0-t): read-out: AUClast; for MRT inf: read-out: MRTInf—obs
# Protocol: Positive control drug 4-butyl-α-agarofuran preparation (BAF) and Compound 2 preparation were administered intraperitoneally at a dose of 10 mg/kg/10 ml (calculated according to the crude drug), and a suspension was prepared by ultrasonic grinding with double distilled water. Male ICR mice, with a weight of 21-24 g, were purchased from SPF (Beijing) Biotechnology Co., Ltd.
# 12 mice were randomly divided into 4 groups, there were 3 parallel cross blood sampling points in each group (5 points in groups 1 and 3, and 6 points in groups 2 and 4), it was administered according to the weight, and blood was collected from the orbital venous plexus at 5 min, 10 min, […], 30 min, 1 h, 2 h, 4 h, 6 h, 8 h, 12 h, and 24 h after administration. The bloods at each time point were collected into Eppendorf (EP) tubes anticoagulated with heparin, and placed on ice and centrifuged at 8000 r/min×5 min, to separate plasma for later use.
# 20 μl of mouse blank plasma was taken, 55 μl of acetonitrile containing an internal standard solution (200 ng/mL, BAF crude drug and Compound 2 crude drug are mutual internal standards, namely BAF was used as the internal standard of Compound 2, and Compound 2 was used as the internal standard of BAF, similarly hereinafter) is added, 5 μl of a methanol working solution of the compound BAF or Compound 2 with different concentrations was respectively added and mixed uniformly, so that its final plasma concentrations were 0.2, 0.5, 2, 5, 10, 25, 50, 100, 200, 500, 750, and 1000 ng/ml respectively, centrifugation was conducted twice at a high speed of 13000 r/min×5 min, and 5 μl of a supernatant was taken for UPLC-MS/MS analysis.
# 10 μL of plasma was taken, 30 μL of acetonitrile containing internal standard solution (100 ng/mL) was added to precipitate proteins, after the material was centrifuged twice at a high speed of 13000 r/min×5 min, 5 μl of a supernatant was taken for UPLC-MS/MS analysis.
# Chromatographic column: Symmetry C8 (2.1 mm×50 mm, 3.5 μm), column temperature: 25° C., mobile phase: acetonitrile (0.1% formic acid): water (0.1% formic acid)=70:30 gradient elution, flow rate: 0.2 mL/min, Parallel Reaction Monitoring (PRM) detection, BAF: m/z 263.2→245.2; and Compound 2: m/z 317.2→299.2.
# [1] = mouse, 10 mg/kg, IP 10 mg/kg, 5 min, read-out: Plasma concentration, Mean
# [2] = mouse, 10 mg/kg, IP 10 mg/kg, 0.167 h, read-out: Plasma concentration, Mean
# [3] = mouse, 10 mg/kg, IP 10 mg/kg, 0.167 h, read-out: Plasma concentration, individual mice 1-3
# [4] = mouse, 10 mg/kg, IP 10 mg/kg, 0.25 h, read-out: Plasma concentration, Mean
# [5] = mouse, 10 mg/kg, IP 10 mg/kg, 0.5 h, read-out: Plasma concentration, Mean
# [6] = mouse, 10 mg/kg, IP 10 mg/kg, 0.5 h, read-out: Plasma concentration, individual mice 1-3
# [7] = mouse, 10 mg/kg, IP 10 mg/kg, 1 h, read-out: Plasma concentration, Mean
# [8] = mouse, 10 mg/kg, IP 10 mg/kg, 2 h, read-out: Plasma concentration, Mean
# [9] = mouse, 10 mg/kg, IP 10 mg/kg, 2 h, read-out: Plasma concentration, individual mice 1-3
# [10] = mouse, 10 mg/kg, IP 10 mg/kg, 4 h, read-out: Plasma concentration, Mean
# [11] = mouse, 10 mg/kg, IP 10 mg/kg, 8 h, read-out: Plasma concentration, individual mice 1-3
smiles,measurement,setting,value
"CCCCC1=CCC[C@@]2(C)CC[C@@H]3C[C@]12OC3(C)C [BAF, 4-butyl-α-agarofuran, reference compound]","Plasma concentration, individual mice 1-3","IP 10 mg/kg, 5 min, 10 mg/kg",413 ng/mL and 295 ng/mL and 194 ng/mL
same,"Plasma concentration, individual mice 1-3","IP 10 mg/kg, 0.167 h, 10 mg/kg",133 ng/mL and 204 ng/mL
same,"Plasma concentration, individual mice 1-3","IP 10 mg/kg, 0.25 h, 10 mg/kg",364 ng/mL and 132 ng/mL and 91.8 ng/mL
same,"Plasma concentration, individual mice 1-3","IP 10 mg/kg, 0.5 h, 10 mg/kg",45.2 ng/mL and 38.9 ng/mL
same,"Plasma concentration, individual mice 1-3","IP 10 mg/kg, 1 h, 10 mg/kg",54.6 ng/mL and 22.2 ng/mL and 24.4 ng/mL
same,"Plasma concentration, individual mice 1-3","IP 10 mg/kg, 2 h, 10 mg/kg",6.91 ng/mL and 6.54 ng/mL
same,"Plasma concentration, individual mice 1-3","IP 10 mg/kg, 4 h, 10 mg/kg",11.3 ng/mL and 2.09 ng/mL and 2.90 ng/mL
same,"Plasma concentration, individual mice 1-3","IP 10 mg/kg, 6 h",BLOQ
same,"Plasma concentration, individual mice 1-3","IP 10 mg/kg, 8 h, 10 mg/kg",BLOQ
same,"Plasma concentration, individual mice 1-3","IP 10 mg/kg, 12 h",BLOQ
same,"Plasma concentration, individual mice 1-3","IP 10 mg/kg, 24 h",BLOQ
same,concentration at 5 min,[1],301 ng/mL
same,concentration at 0.167 h,[2],179 ng/mL
same,concentration at 0.167 h,[3],201 ng/mL
same,concentration at 0.25 h,[4],196 ng/mL
same,concentration at 0.5 h,[5],42 ng/mL
same,concentration at 0.5 h,[6],41.9 ng/mL
same,concentration at 1 h,[7],33.7 ng/mL
same,concentration at 2 h,[8],6.52 ng/mL
same,concentration at 2 h,[9],6.1 ng/mL
same,concentration at 4 h,[10],5.4 ng/mL
same,concentration at 8 h,[11],4.03 ng/mL
same,half-life,"mouse, IP 10 mg/kg",1.29 h
same,MRT,"mouse, IP 10 mg/kg",1.05 h
same,AUC(0-inf),IP 10 mg/kg,139 ng·h/mL
same,Cmax,IP 10 mg/kg,301 ng/mL
same,Tmax,IP 10 mg/kg,5 min
same,AUC(0-t),IP 10 mg/kg,129 ng·h/mL
same,MRT inf,IP 10 mg/kg,1.05 h
same,AUClast/D,IP 10 mg/kg,12.9 kg·ng·h/mL/mg
same,AUC—% Extrap—obs,IP 10 mg/kg,7.24%
same,T1/2,IP 10 mg/kg,1.29 h
"CC1(C)O[C@]23C[C@H]1CC[C@]2(C)CCC=C3CCCC(F)(F)F [Compound 2, (1R,6S,9R)6,10,10-trimethyl-2-(4,4,4-trifluorobutyl)-11-oxatricyclo [7.2.1.0^1,6]dodec-2-ene]","Plasma concentration, individual mice 1-3","IP 10 mg/kg, 5 min, 10 mg/kg",407 ng/mL and 585 ng/mL
same,"Plasma concentration, individual mice 1-3","IP 10 mg/kg, 0.167 h, 10 mg/kg",198 ng/mL and 214 ng/mL
same,"Plasma concentration, individual mice 1-3","IP 10 mg/kg, 0.25 h, 10 mg/kg",201 ng/mL and 196 ng/mL
same,"Plasma concentration, individual mice 1-3","IP 10 mg/kg, 0.5 h, 10 mg/kg",59.8 ng/mL and 67.5 ng/mL
same,"Plasma concentration, individual mice 1-3","IP 10 mg/kg, 1 h, 10 mg/kg",41.2 ng/mL and 32.1 ng/mL
same,"Plasma concentration, individual mice 1-3","IP 10 mg/kg, 2 h, 10 mg/kg",17.9 ng/mL and 22.3 ng/mL
same,"Plasma concentration, individual mice 1-3","IP 10 mg/kg, 4 h, 10 mg/kg",8.03 ng/mL and 6.56 ng/mL
same,"Plasma concentration, individual mice 1-3","IP 10 mg/kg, 6 h, 10 mg/kg",3.20 ng/mL and 3.79 ng/mL
same,"Plasma concentration, individual mice 1-3","IP 10 mg/kg, 8 h, 10 mg/kg",BLOQ
same,"Plasma concentration, individual mice 1-3","IP 10 mg/kg, 12 h",BLOQ
same,"Plasma concentration, individual mice 1-3","IP 10 mg/kg, 24 h",BLOQ
same,concentration at 5 min,[1],450 ng/mL
same,concentration at 5 min,"mouse, 10 mg/kg, IP 10 mg/kg, 5 min, read-out: Plasma concentration, individual mice 1-3",359 ng/mL
same,concentration at 0.167 h,[2],251 ng/mL
same,concentration at 0.167 h,[3],341 ng/mL
same,concentration at 0.25 h,[4],195 ng/mL
same,concentration at 0.25 h,"mouse, 10 mg/kg, IP 10 mg/kg, 0.25 h, read-out: Plasma concentration, individual mice 1-3",188 ng/mL
same,concentration at 0.5 h,[5],69.5 ng/mL
same,concentration at 0.5 h,[6],81.1 ng/mL
same,concentration at 1 h,[7],32.5 ng/mL
same,concentration at 1 h,"mouse, 10 mg/kg, IP 10 mg/kg, 1 h, read-out: Plasma concentration, individual mice 1-3",24.3 ng/mL
same,concentration at 2 h,[8],20 ng/mL
same,concentration at 2 h,[9],19.7 ng/mL
same,concentration at 4 h,[10],7.45 ng/mL
same,concentration at 4 h,"mouse, 10 mg/kg, IP 10 mg/kg, 4 h, read-out: Plasma concentration, individual mice 1-3",7.77 ng/mL
same,concentration at 6 h,"mouse, 10 mg/kg, IP 10 mg/kg, 6 h, read-out: Plasma concentration, Mean",3.56 ng/mL
same,concentration at 6 h,"mouse, 10 mg/kg, IP 10 mg/kg, 6 h, read-out: Plasma concentration, individual mice 1-3",3.69 ng/mL
same,concentration at 8 h,[11],3.17 ng/mL
same,half-life,"mouse, IP 10 mg/kg",1.61 h
same,MRT,"mouse, IP 10 mg/kg",1.32 h
same,AUC(0-inf),IP 10 mg/kg,198 ng·h/mL
same,Cmax,IP 10 mg/kg,450 ng/mL
same,Tmax,IP 10 mg/kg,5 min
same,AUC(0-t),IP 10 mg/kg,190 ng·h/mL
same,MRT inf,IP 10 mg/kg,1.32 h
same,AUClast/D,IP 10 mg/kg,19 kg·ng·h/mL/mg
same,AUC—% Extrap—obs,IP 10 mg/kg,4.16%
same,T1/2,IP 10 mg/kg,1.61 h
same,Pharmacokinetic properties compared with BAF,"mouse, IP",better pharmacokinetic properties
same,AUC(0-t) as percentage of BAF,"mouse, IP 10 mg/kg",142%
same,Cmax as percentage of BAF,"mouse, IP 10 mg/kg",150%
